Test results as given in ChEMBL document CHEMBL1149029, “New cycloartanol sulfates from the alga Tydemania expeditionis: inhibitors of the protein tyrosine kinase pp60v-src” (J Nat Prod, 1994).

Test: Inhibition of Rous sarcoma virus pp60v-src

CC(C)CC(=O)C[C@@H](C)[C@H]1CC[C@@]2(C)[C@@H]3CC[C@H]4[C@](C)(COS(=O)(=O)O)[C@@H](OS(=O)(=O)O)CC[C@@]45C[C@@]35CC[C@]12C
IC50: 32 µM

CC(C)CC(O)C[C@@H](C)[C@H]1CC[C@@]2(C)[C@@H]3CC[C@H]4[C@](C)(COS(=O)(=O)O)[C@@H](OS(=O)(=O)O)CC[C@@]45C[C@@]35CC[C@]12C (stereo partly drawn)
IC50: 100 µM

CC(C)=CC(=O)C[C@@H](C)[C@H]1CC[C@@]2(C)[C@@H]3CC[C@H]4[C@](C)(COS(=O)(=O)O)[C@@H](OS(=O)(=O)O)CC[C@@]45C[C@@]35CC[C@]12C
IC50: 39 µM
